Reference: ChEMBL document CHEMBL1127120, “Benzofuran based angiotensi II antagonists related to GR117289: Part II; amino acid amides” (Bioorg Med Chem Lett, 1993)
The source made the active and inactive calls. No cut-off for these calls is given here.

Tests used:
[1] = target: T1, Type-1 angiotensin II receptor (Oryctolagus cuniculus) (UniProt P34976); test: Affinity for Angiotensin II receptor, type 1 as antagonism of angII contractile effect in rabbit isolated thoracic aorta; type: functional, tissue-based
T1 sequence (whole entry): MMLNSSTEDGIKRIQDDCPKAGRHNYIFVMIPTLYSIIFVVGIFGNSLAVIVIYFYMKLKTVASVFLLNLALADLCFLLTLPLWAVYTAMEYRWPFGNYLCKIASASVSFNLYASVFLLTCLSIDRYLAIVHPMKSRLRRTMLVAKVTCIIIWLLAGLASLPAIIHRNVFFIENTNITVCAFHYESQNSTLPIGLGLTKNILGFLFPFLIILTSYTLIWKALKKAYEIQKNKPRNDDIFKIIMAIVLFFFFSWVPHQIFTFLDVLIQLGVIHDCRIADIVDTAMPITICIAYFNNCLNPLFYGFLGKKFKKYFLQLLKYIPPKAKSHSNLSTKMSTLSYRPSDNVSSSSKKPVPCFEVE

[2] = species: Rattus norvegicus; test: Oral activity in renal artery ligated rat model was determined; no significant activity.; type: functional, organism-based
[3] = tested on: Rattus norvegicus; test: Oral activity in renal artery ligated rat model was determined; excellent significant activity causing large and sustained fall in blood pressure at a dose of 1 mg/Kg.; type: functional, organism-based

SMILES | pKB [1] | Activity [2] | Activity [3]
CCCCc1nc(Cl)c(C(=O)N[C@@H](C(=O)O)[C@H](C)CC)n1Cc1ccc2oc(-c3ccccc3-c3nn[nH]n3)c(Br)c2c1 | 9.2 | inactive | –
CCCCc1ncc(C=C(Cc2cccs2)C(=O)O)n1Cc1ccc2oc(-c3ccccc3-c3nn[nH]n3)c(Br)c2c1 | 10.9 | – | –
CCCCc1nc(Cl)c(C(=O)NCC(=O)O)n1Cc1ccc2oc(-c3ccccc3-c3nn[nH]n3)c(Br)c2c1 | 9.4 | inactive | –
CCCCc1nc(Cl)c(C(=O)NCC(N)=O)n1Cc1ccc2oc(-c3ccccc3-c3nn[nH]n3)c(Br)c2c1 | 9.4 | inactive | –
CCCCc1nc(Cl)c(C(=O)N[C@H](C)C(=O)O)n1Cc1ccc2oc(-c3ccccc3-c3nn[nH]n3)c(Br)c2c1 | 9 | inactive | –
CCCCc1nc(Cl)c(C(=O)NCC(=O)OCC)n1Cc1ccc2oc(-c3ccccc3-c3nn[nH]n3)c(Br)c2c1 | 9.3 | – | Active
CCCCc1nc(Cl)c(C(=O)N[C@@H](C)C(=O)O)n1Cc1ccc2oc(-c3ccccc3-c3nn[nH]n3)c(Br)c2c1 | 8.9 | inactive | –
CCCCc1nc(Cl)c(C(=O)N[C@H](Cc2ccccc2)C(=O)O)n1Cc1ccc2oc(-c3ccccc3-c3nn[nH]n3)c(Br)c2c1 | 8 | inactive | –
